Measured values: publication PMC4290489, “Identification of multiple salicylic acid-binding proteins using two high throughput screens” (Frontiers in Plant Science, 2015)

Experiments:
Type in all cases: binding
HPR2 [1] = target: T1, HPR2 (Arabidopsis thaliana, UniProt Q9CA90); assay: SPR competition on 3AESA chip; competition of 4AzSA photo-crosslinking; details: 1-5 mM SA, HBS-EP pH 7.4 (SPR); competes with 3AESA and 4AzSA
T1 construct: N-terminal His6 (pET28a), from E. coli
T1 sequence (Q9CA90 1-313): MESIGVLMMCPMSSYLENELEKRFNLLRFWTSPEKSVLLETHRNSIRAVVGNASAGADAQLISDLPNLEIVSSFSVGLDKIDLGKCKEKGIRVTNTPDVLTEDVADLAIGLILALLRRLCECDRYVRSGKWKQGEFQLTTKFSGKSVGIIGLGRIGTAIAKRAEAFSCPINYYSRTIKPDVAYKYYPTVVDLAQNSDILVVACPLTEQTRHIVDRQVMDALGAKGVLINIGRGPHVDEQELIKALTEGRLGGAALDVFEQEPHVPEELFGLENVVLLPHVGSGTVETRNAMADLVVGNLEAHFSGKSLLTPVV

HPR2 [2] = target: T1, HPR2; assay: UV photo-crosslinking, anti-SA immunoblot; details: 50 uM 4AzSA, PBS, on ice, 254 nm UV; covalent; competed by SA
NPR1 = target: T2, NPR1 (Arabidopsis thaliana, UniProt P93002); assay: UV photo-crosslinking, anti-SA immunoblot; details: 50 uM 4AzSA, PBS, on ice, 254 nm UV; covalent; competed by SA
T2 construct: N-terminal His6-MBP fusion (pET-MALHT), from E. coli, Ni-NTA and gel filtration
T2 sequence (P93002 1-593): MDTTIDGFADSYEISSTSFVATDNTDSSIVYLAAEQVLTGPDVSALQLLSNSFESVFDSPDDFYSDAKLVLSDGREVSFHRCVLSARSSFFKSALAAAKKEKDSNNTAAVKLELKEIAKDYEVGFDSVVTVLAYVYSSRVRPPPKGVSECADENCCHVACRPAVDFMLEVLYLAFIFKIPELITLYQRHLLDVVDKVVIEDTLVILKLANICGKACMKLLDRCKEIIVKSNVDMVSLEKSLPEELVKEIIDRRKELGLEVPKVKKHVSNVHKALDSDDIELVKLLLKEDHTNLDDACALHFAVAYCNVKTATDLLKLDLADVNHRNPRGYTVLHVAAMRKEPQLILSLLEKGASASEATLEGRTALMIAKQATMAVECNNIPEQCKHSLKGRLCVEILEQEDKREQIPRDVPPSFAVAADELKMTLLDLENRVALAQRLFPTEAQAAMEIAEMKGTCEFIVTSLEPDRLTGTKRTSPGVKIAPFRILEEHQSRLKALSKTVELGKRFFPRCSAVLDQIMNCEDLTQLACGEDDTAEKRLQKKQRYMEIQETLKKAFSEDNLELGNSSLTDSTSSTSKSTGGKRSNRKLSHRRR

UGE2 = target: T3, UGE2 (Arabidopsis thaliana, UniProt Q9T0A7); assay: UV photo-crosslinking, anti-SA immunoblot; details: 50 uM 4AzSA, PBS, on ice, 254 nm UV; covalent; competed by SA
T3 construct: N-terminal His6 (pET28a), from E. coli
T3 sequence (Q9T0A7 1-350): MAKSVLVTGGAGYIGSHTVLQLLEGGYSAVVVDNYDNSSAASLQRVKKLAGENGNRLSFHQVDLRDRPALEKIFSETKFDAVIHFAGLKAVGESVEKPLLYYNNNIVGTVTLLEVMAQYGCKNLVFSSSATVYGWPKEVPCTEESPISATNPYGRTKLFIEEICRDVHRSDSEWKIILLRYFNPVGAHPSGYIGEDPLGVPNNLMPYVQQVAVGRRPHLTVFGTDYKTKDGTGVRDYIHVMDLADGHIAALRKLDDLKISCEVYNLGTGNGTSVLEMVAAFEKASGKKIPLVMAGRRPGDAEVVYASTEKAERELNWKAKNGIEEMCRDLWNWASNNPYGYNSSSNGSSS

SHM4 = target: T4, SHM4 (Arabidopsis thaliana, UniProt O23254); assay: UV photo-crosslinking, anti-SA immunoblot; details: 50 uM 4AzSA, PBS, on ice, 254 nm UV; covalent; competed by SA
T4 construct: N-terminal His6 (pET28a), from E. coli
T4 sequence (O23254 1-471): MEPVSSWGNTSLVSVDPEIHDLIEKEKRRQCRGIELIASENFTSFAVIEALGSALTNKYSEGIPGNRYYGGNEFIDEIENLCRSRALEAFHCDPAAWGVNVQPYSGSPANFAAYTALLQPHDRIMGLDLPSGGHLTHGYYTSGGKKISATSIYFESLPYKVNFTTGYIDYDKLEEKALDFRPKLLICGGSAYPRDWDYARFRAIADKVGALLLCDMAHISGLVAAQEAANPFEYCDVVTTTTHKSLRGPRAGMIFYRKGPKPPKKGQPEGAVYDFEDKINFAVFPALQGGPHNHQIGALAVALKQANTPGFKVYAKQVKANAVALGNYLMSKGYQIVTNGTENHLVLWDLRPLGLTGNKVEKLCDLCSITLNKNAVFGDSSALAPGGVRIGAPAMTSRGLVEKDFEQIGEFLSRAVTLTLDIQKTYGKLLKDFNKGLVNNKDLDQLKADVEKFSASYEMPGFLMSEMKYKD

RBCS1A = target: T5, RBCS1A (Arabidopsis thaliana, UniProt P10795); assay: UV photo-crosslinking, anti-SA immunoblot; details: 50 uM 4AzSA, PBS, on ice, 254 nm UV; covalent; competed by SA
T5 construct: gene RBCS-1A; small subunit alone, N-terminal His6 (pET28a), from E. coli

GPX2 = target: T6, GPX2 (Arabidopsis thaliana, UniProt O04922); assay: UV photo-crosslinking, anti-SA immunoblot; details: 50 uM 4AzSA, PBS, on ice, 254 nm UV; covalent; competed by SA
T6 construct: N-terminal His6 (pET28a), from E. coli
T6 sequence (O04922 1-169): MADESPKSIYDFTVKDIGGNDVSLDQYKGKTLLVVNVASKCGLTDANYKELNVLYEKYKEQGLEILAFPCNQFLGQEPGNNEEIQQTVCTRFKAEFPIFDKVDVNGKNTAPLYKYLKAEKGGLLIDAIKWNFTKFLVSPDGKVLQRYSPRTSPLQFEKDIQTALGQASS

TRX-m1 = target: T7, TRX-m1 (Arabidopsis thaliana, UniProt O48737); assay: UV photo-crosslinking, anti-SA immunoblot; details: 50 uM 4AzSA, PBS, on ice, 254 nm UV; covalent; competed by SA
T7 construct: gene At1g03680; N-terminal His6 (pET28a), from E. coli
T7 sequence (O48737 49-179): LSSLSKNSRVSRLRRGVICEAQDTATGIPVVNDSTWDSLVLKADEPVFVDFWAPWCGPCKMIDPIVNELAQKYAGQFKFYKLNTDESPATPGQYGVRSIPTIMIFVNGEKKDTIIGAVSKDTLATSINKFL

Row | Structure (SMILES) | SPR competition on 3AESA chip; competition of 4AzSA photo-crosslinking (HPR2 [1]) | UV photo-crosslinking, anti-SA immunoblot (HPR2 [2]) | UV photo-crosslinking, anti-SA immunoblot (NPR1) | UV photo-crosslinking, anti-SA immunoblot (UGE2) | UV photo-crosslinking, anti-SA immunoblot (SHM4) | UV photo-crosslinking, anti-SA immunoblot (RBCS1A) | UV photo-crosslinking, anti-SA immunoblot (GPX2) | UV photo-crosslinking, anti-SA immunoblot (TRX-m1)
1 | O=C(O)c1ccccc1O [SA] | bound 3AESA and crosslinked to 4AzSA in an SA-inhibitable manner, indicating that they are SABPs |  |  |  |  |  |  | 
2 | [N-]=[N+]=Nc1ccc(C(=O)O)c(O)c1 [4AzSA] |  | bound 3AESA and crosslinked to 4AzSA in an SA-inhibitable manner, indicating that they are SABPs | NPR1 bound and was crosslinked to 4AzSA; this crosslinking was suppressed by increasing levels of SA | bound 3AESA and crosslinked to 4AzSA in an SA-inhibitable manner, indicating that they are SABPs | These five proteins also bound and crosslinked to 4AzSA | bound 3AESA and crosslinked to 4AzSA in an SA-inhibitable manner, indicating that they are SABPs | bound 3AESA and crosslinked to 4AzSA in an SA-inhibitable manner, indicating that they are SABPs | These five proteins also bound and crosslinked to 4AzSA
